Data: patent US6114572A, “Substituted phenols and thiophenols useful as antioxidant agents” (priority 1997, dated 2000)
Where two headings read alike, the source gives them in different places.

Legend:
[1] = system: oxidation of serum lipids; assay: TBARS assay (oxidation of serum lipids) in male Sprague-Dawley rats; type: in vivo; settings: feed or water, 96 h, rat serum, 4 days, N = 5, CuSO4-initiated, 3 hr, read-out: TBARS, percent of control
Protocol: (§1) A typical experiment consists of 4-6 groups of rats (N=5 per group) with 1 group being a control which receives no MDL compound and the other groups being treated with 0.3% MDL compound. […] Mix the MDL compound with approximately 50 grams of food using a mortar and pestle. This is added to the remainder of the food and mixed for 3 hours on a rotary mixer. In the morning of day 5, anesthetize non-fasted rats with carbon dioxide, and collect blood by cardiac puncture. Sacrifice rats by cervical dislocation. Record body weights and liver weights in grams. Record food consumption as grams·day^-1 ·rat^-1. Deaths are recorded as mortality. Use aliquots of fresh serum for clinical chemistries, thiobarbituric acid reactive substances (TBARS) and conjugated diene measurements. Freeze aliquots of serum (~0.5 mL) and whole livers at -20° C. for compound and metabolite concentration determination at a later time.
In this assay the oxidation of serum lipids is initiated with CuSO4, resulting in the formation of aldehydes, such as malondialdehyde (MDA). Upon incubation with thiobarbituric acid, the absorbance of the aldehydes can be detected at 530-540 nm. […] Measure TBARS as follows: mix 100 μL of serum with 400 μL of a 5 mmol CuSO4 solution and incubate at 37° C. for 3 hr. Stop the reactions by addition of 1.0 mL of 20% trichloroacetic acid. […] Centrifuge samples briefly to pellet undissolved material, and transfer the supernatants to a 96-well microtiter plate. Measure absorbances at 540 nm using a Biotek model EL311 microplate reader. The nmoles of MDA produced are calculated from a standard curve of 0 to 10 nmoles of MDA prepared from malonaldehyde bis(dimethylacetal). Serum samples from treated rats are compared to serum samples from control rats that received no MDL compound.

[2] = Animal parameters (food, body weight, liver weight) in cholesterol-fed rabbits; type: in vivo, New Zealand White rabbit; settings: 0.4% in diet, 7 days, N = 5
Description: (§2) Perform five independent experiments in the following manner. Each study has a control group and 1-5 groups treated with MDL compound (N=5 per group). Feed Female New Zealand White rabbits (Hazelton, ~2.0-2.3 kg) 0.2% cholesterol enriched rabbit chow (Purina #5322) with or without 0.4% MDL compound. Solubilize the MDL compounds in 100% ethanol. Spray the chow with the MDL mixtures and allow to dry overnight in a chemical fume hood. Spray control chow with ethanol. Feed rabbits 100 grams food per day for 7 days (0.6% MDL 103,491 were fed for 14 days); make available water ad libitum. On day 7, bleed (~2 mL) rabbits (fasted overnight) from a marginal ear vein. Euthanize rabbits by carbon dioxide overdose. Record the total body and liver weights in grams. Record food as grams·days^-1 ·rabbits^-1. Use aliquots of fresh serum for clinical chemistries, lipoprotein cholesterol determination, thiobarbituric acid reactive substances (TBARS) and compound and metabolite concentrations in serum. Freeze livers (~5 gram aliquots) at -20° C. for compound and metabolite concentration determination at a later time.

[3] = system: Male Sprague-Dawley Rats; assay: Serum clinical chemistries in male Sprague-Dawley rats; type: in vivo
Protocol: Measurement of Antioxidant Activity and Bioavailability of Compounds of Formula (1) By In Vivo Screening in Male Sprague-Dawley Rats
as §1
Allow blood to clot at room temperature for 30 minutes. Obtain serum after centrifugation for 10 min at 4° C. at 3000 rpm in a Beckman J-6M/E centrifuge with a JS-4.2 rotor. […] Calculate ALP, ALT, and AST as units/L. Calculate cholesterol, triglycerides, and glucose as mg/dL.

[4] = system: Cholesterol-Fed Female New Zealand White Rabbits; assay: Serum cholesterol, lipoprotein cholesterol and triglycerides in cholesterol-fed rabbits; type: in vivo, New Zealand White rabbit; settings: rabbit serum, 0.4% in diet, 7 days, N = 5, fasted overnight
Protocol: Perform five independent experiments in the following manner. […] Solubilize the MDL compounds in 100% ethanol. Spray the chow with the MDL mixtures and allow to dry overnight in a chemical fume hood. Spray control chow with ethanol. […] On day 7, bleed (~2 mL) rabbits (fasted overnight) from a marginal ear vein. Euthanize rabbits by carbon dioxide overdose. Record the total body and liver weights in grams. Record food as grams·days^-1 ·rabbits^-1. Use aliquots of fresh serum for clinical chemistries, lipoprotein cholesterol determination, thiobarbituric acid reactive substances (TBARS) and compound and metabolite concentrations in serum. Freeze livers (~5 gram aliquots) at -20° C. for compound and metabolite concentration determination at a later time.
Allow blood to clot at room temperature for 30 minutes. Obtain serum after centrifugation for 10 min at 5° C. at 3000 rpm in a Beckman GPKR centrifuge with a GH rotor. […] Calculate cholesterol and triglycerides as mg/dL.
Separate lipoprotein fractions (very low density lipoprotein, VLDL, low density lipoprotein, LDL and high density lipoprotein, HDL) on a Sepharose 6HR column (1×30 cm, Pharmacia) attached to a Waters Powerline HPLC system. Inject serum (50 μL) onto the column and elute with phosphate buffered saline, pH 7.4, at a flow rate of 0.5 mL/min. […] Measure absorbance at 500 nm. The lipoprotein subfractions are quantitated as follows:

[5] = system: oxidation of serum lipids; assay: TBARS assay (oxidation of serum lipids) in cholesterol-fed rabbits; type: in vivo, New Zealand White rabbit; settings: rabbit serum, 0.4% in diet, 7 days, N = 5, CuSO4-initiated, 5 hr
Description: as §2, with “Freeze livers (~5 gram aliquots) at -20° C. for compound and metabolite concentration determination at a later time.” left out
TBARS are a qualitative indication of the oxidation of lipids in a sample. […] Upon incubation with thiobarbituric acid, the absorbance of the aldehydes can be detected at 530-540 nm. […] Measure absorbances at 540 nm using a Biotek model EL311 microplate reader. The nmoles of MDA produced are calculated from a standard curve of 0 to 10 nmoles of MDA prepared from malonaldehyde bis(dimethylacetal). […]

[6] = Animal parameters (food, body weight, liver weight, mortality) in male Sprague-Dawley rats; type: in vivo; settings: for mortality at 96 h: po, read-out: mortality (deaths per group); for mortality at 96 h / body wt., percent of control: rat
Description: (§3) A typical experiment consists of 4-6 groups of rats (N=5 per group) with 1 group being a control which receives no MDL compound and the other groups being treated with 0.3% MDL compound. Some of the compounds are either repeated at 0.3% or evaluated again at the lower dose of 0.1%. House Male Sprague-Dawley rats, 50-100 g, (Harlan Laboratories, Indianapolis, Ind.) in groups of 5, feeding ad libitum water and Purina Rodent chow (#5002) with or without MDL compound as a dietary admixture for 4 days. Make dietary admixtures (0.3%) by mixing 1.2 grams of an MDL compound with 400 grams of Purina rodent chow (#5002). Mix the MDL compound with approximately 50 grams of food using a mortar and pestle. This is added to the remainder of the food and mixed for 3 hours on a rotary mixer. In the morning of day 5, anesthetize non-fasted rats with carbon dioxide, and collect blood by cardiac puncture. Sacrifice rats by cervical dislocation. Record body weights and liver weights in grams. Record food consumption as grams·day^-1 ·rat^-1. Deaths are recorded as mortality. Use aliquots of fresh serum for clinical chemistries, thiobarbituric acid reactive substances (TBARS) and conjugated diene measurements. Freeze aliquots of serum (~0.5 mL) and whole livers at -20° C. for compound and metabolite concentration determination at a later time.

[7] = HPLC quantitation of compound and metabolite concentration in rat serum and liver; settings: in vivo; for concentration at 96 h: po, 0.3% in diet, 4 days
Description: as §3
Determine serum and liver concentrations of parent compound and the metabolites, bisphenol and diphenoquinone, by reverse phase HPLC using a Waters 990 Powerline system. Homegenize livers (1 gram samples) with 5.0 mL PBS, pH 7.4, using a Polytron tissue homogenizer at setting 5 for 20-30 seconds. Extract serum or liver homogenates as follows: add 100 μL of either serum or homogenate to 2.0 mL diethyl ether:ethanol (3:1) while vortexing the tube. Cap the sample tubes and centrifuge for 10 min at 5° C. at 3500 rpm in a Beckman GPKR centrifuge with a GH 3.7 rotor. Transfer the supernatants to clean tubes and dry under N2. Reconstitute samples with 200 μL of acetonitrile:hexane:0.1 M ammonium acetate (90:6.5:3.5, by vol.). Then, inject 100 μL onto a Waters Deltapak C18-300 Å column, and elute with an 83% acetonitrile:17% water mobile phase at a flow rate of 1.5 mL/min. Record absorbances at the wavelengths of 240, 254, and 420nm. Calculate compound concentrations from known quantities of authentic parent compounds after correction for recovery. […]. Calculate concentrations as μg/mL of serum and μg/g of liver.

[8] = system: oxidation of lipids; assay: Conjugated diene lag phase determination in rat serum; type: in vivo, Sprague-Dawley rat; settings: rat pooled serum, 0.3% in diet, 4 days; mean of 2 determinations; not normalized to control
Description: as §3, with “Use aliquots of fresh serum for clinical chemistries, thiobarbituric acid reactive substances (TBARS) and conjugated diene measurements. Freeze aliquots of serum (~0.5 mL) and whole livers at -20° C. for compound and metabolite concentration determination at a later time.” left out
Conjugated diene lag phase is another indicator of the oxidation of lipids. […] Measure the absorbances of all cuvettes and set the instrument baseline to zero using the lowest absorbing sample. […] Record the absorbance of each cuvette at 2 min intervals for a period of 840 min. […]

[9] = rat serum, 0.3% in diet, 4 days, N = 5
[10] = in vivo, 0.3% in diet, 4 days, N = 5
[11] = mean N = 5, read-out: Serum Parent (parent compound concentration)

SMILES | response vs control in vivo at 0.3 % in diet [1] | ALP (alkaline phosphatase), percent of control [3, 9] | AST (aspartate aminotransferase), percent of control [3, 9] | mortality at 96 h [6, 10] | body wt., percent of control ([6]; 0.3% in diet, 4 days, N = 5) | Liver Bis (bisphenol concentration) ([7]; 5760 min) | Liver Quin (diphenoquinone concentration) ([7]; 5760 min) | Serum Bis (bisphenol concentration) ([7]; 5760 min) | Serum Quin (diphenoquinone concentration) ([7]; 5760 min) | concentration at 96 h [7, 11] | also measured
CC(C)=CCC[C@H](C)CCOc1cc(C(C)(C)C)c(O)c(C(C)(C)C)c1 [103,294] | 18% | 124% | 88% | 0% | 101% | 0 | 0 | 0 | 0 | 21700 ng/mL | food (grams eaten per day per rabbit), percent of control [2]: 103%; body wt., percent of control ([2]; rabbit): 100%; lw/bw (liver weight/body weight), percent of control ([2]; rabbit): 105%; GLUC (glucose), percent of control [3, 9]: 103%; ALT (alanine aminotransferase), percent of control ([3]; rat, in vivo): 132%; LDL cholesterol, percent of control [4]: 82%; chol tot. (total cholesterol), percent of control [4]: 94%; TBARS, percent of control [5]: 35%; food (grams eaten per day per rat), percent of control ([6]; 0.3% in diet, 4 days, N = 5): 108%; concentration at 96 h ([7]; mean N = 5, read-out: Liver Parent (parent compound concentration)): 64600 ng/g
CC(C)=CCCC(C)CCOc1ccc(O)c(C(C)(C)C)c1 (centres unmarked) [105,411] | 29% | 76% | 87% | 0% | 101% | 0 | 0 | 0 | 0 | 1100 ng/mL | ALT (alanine aminotransferase), percent of control [3, 9]: 122%; GLUC (glucose), percent of control ([3]; rat, in vivo): 96%; CONJ. DIENE (conjugated diene lag phase) [8]: 400 min; food (grams eaten per day per rat), percent of control ([6]; in vivo): 95%; Liver Parent (parent compound concentration) ([7]; 5760 min): 0
